How the values were obtained:
[1] = target: T1, Oxytocin receptor (Homo sapiens) (UniProt P30559); assay: Intrinsic agonist activity at human oxytocin receptor expressed in CHO cells assessed as increase in intracellular calcium flux measured for 90 sec by fluo-4 dye based FLIPR assay relative to control; type: functional, cell-based
T1 sequence (whole entry): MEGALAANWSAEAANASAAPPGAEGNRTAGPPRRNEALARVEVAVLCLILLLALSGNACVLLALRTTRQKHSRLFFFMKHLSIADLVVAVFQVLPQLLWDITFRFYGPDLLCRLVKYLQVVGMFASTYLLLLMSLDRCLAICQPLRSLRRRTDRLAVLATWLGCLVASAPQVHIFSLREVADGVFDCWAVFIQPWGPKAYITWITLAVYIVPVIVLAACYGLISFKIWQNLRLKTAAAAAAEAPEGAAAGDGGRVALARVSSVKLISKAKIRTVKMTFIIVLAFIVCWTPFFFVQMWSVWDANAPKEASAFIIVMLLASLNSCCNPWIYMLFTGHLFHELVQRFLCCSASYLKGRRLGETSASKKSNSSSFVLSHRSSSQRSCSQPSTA

Oxytocin receptor [2] = target: T2, Oxytocin receptor (Homo sapiens, UniProt P30559); assay: Agonist activity at human oxytocin receptor expressed in CHO cells assessed as increase in intracellular calcium flux measured for 90 sec by fluo-4 dye based FLIPR assay; type: functional, cell-based
T2 sequence (P30559 whole entry): T1 sequence (whole entry)

Oxytocin receptor [3] = target: T2, Oxytocin receptor; assay: Displacement of [3H]8-arginine-vasopressin from human oxytocin receptor expressed in CHO cell membrane incubated for 1 hr by liquid scintillation counting method; type: cell membranes

| Intrinsic activity [1] | EC50 (Oxytocin receptor [2]) | Ki (Oxytocin receptor [3]) | Structure (SMILES) |
| --- | --- | --- | --- |
| 97% | 7.98 nM | – | CC[C@H](C)[C@@H]1NC(=O)[C@H](Cc2ccc(O)cc2)N(C)C(=O)CCSSC[C@@H](C(=O)N2CCC[C@H]2C(=O)N[C@@H](CC(C)C)C(=O)NCC(N)=O)N(C)C(=O)[C@H](CC(N)=O)NC(=O)[C@H](CCC(N)=O)NC1=O |
| 84% | 0.29 nM | – | CC[C@H](C)[C@@H]1NC(=O)[C@H](Cc2ccc(O)cc2)NC(=O)CCSSC[C@@H](C(=O)N2CCC[C@H]2C(=O)N[C@@H](CC(C)C)C(=O)NCC(N)=O)N(C)C(=O)[C@H](CC(N)=O)NC(=O)[C@H](CCC(N)=O)NC1=O |
| 83% | 15.6 nM | 68.5 nM | CC[C@H](C)[C@@H]1NC(=O)[C@H](Cc2ccc(O)cc2)NC(=O)[C@@H](N)CSSC[C@@H](C(=O)N2CCC[C@H]2C(=O)N(C)[C@@H](CC(C)C)C(=O)NCC(N)=O)N(C)C(=O)[C@H](CC(N)=O)NC(=O)[C@H](CCC(N)=O)NC1=O |
| 94% | 283 nM | – | CC[C@H](C)[C@H]1C(=O)N[C@@H](CCC(N)=O)C(=O)N[C@@H](CC(N)=O)C(=O)N(C)[C@H](C(=O)N2CCC[C@H]2C(=O)N[C@@H](CC(C)C)C(=O)NCC(N)=O)CSSC[C@H](N)C(=O)N[C@@H](Cc2ccc(O)cc2)C(=O)N1C |
| 102% | 0.47 nM | 1.32 nM | CC[C@H](C)[C@@H]1NC(=O)[C@H](Cc2ccc(O)cc2)NC(=O)[C@@H](N)CSSC[C@@H](C(=O)N2CCC[C@H]2C(=O)N[C@@H](CC(C)C)C(=O)N(C)CC(N)=O)NC(=O)[C@H](CC(N)=O)NC(=O)[C@H](CCC(N)=O)NC1=O |
| 81% | 175 nM | 98.6 nM | CC[C@H](C)[C@@H]1NC(=O)[C@H](Cc2ccc(O)cc2)NC(=O)[C@@H](NC)CSSC[C@@H](C(=O)N2CCC[C@H]2C(=O)N[C@@H](CC(C)C)C(=O)NCC(N)=O)N(C)C(=O)[C@H](CC(N)=O)NC(=O)[C@H](CCC(N)=O)NC1=O |
| 86% | 4.23 nM | – | CC[C@H](C)[C@@H]1NC(=O)[C@H](Cc2ccc(O)cc2)NC(=O)CCSSC[C@@H](C(=O)N2CCC[C@H]2C(=O)N(C)[C@@H](CC(C)C)C(=O)NCC(N)=O)N(C)C(=O)[C@H](CC(N)=O)NC(=O)[C@H](CCC(N)=O)NC1=O |
| 100% | 26 nM | 31.5 nM | CC[C@H](C)[C@@H]1NC(=O)[C@H](Cc2ccc(O)cc2)NC(=O)[C@@H](N)CSSC[C@@H](C(=O)N2CCC[C@H]2C(=O)N[C@@H](CC(C)C)C(=O)NCC(N)=O)NC(=O)[C@H](CC(N)=O)N(C)C(=O)[C@H](CCC(N)=O)NC1=O |
| 96% | 5.52 nM | 10.7 nM | CC[C@H](C)[C@@H]1NC(=O)[C@H](Cc2ccc(O)cc2)NC(=O)[C@@H](N)CSSC[C@@H](C(=O)N2CCC[C@H]2C(=O)N(C)[C@@H](CC(C)C)C(=O)N(C)CC(N)=O)NC(=O)[C@H](CC(N)=O)NC(=O)[C@H](CCC(N)=O)NC1=O |
| 100% | 14.7 nM | 113 nM | CC[C@H](C)[C@H]1C(=O)N[C@@H](CCC(N)=O)C(=O)N[C@@H](CC(N)=O)C(=O)N[C@H](C(=O)N2CCC[C@H]2C(=O)N[C@@H](CC(C)C)C(=O)NCC(N)=O)CSSC[C@H](N)C(=O)N[C@@H](Cc2ccc(O)cc2)C(=O)N1C |
| 84% | 2.41 nM | – | CC[C@H](C)[C@@H]1NC(=O)[C@H](Cc2ccc(O)cc2)NC(=O)CCSSC[C@@H](C(=O)N2CCC[C@H]2C(=O)N[C@@H](CC(C)C)C(=O)N(C)CC(N)=O)N(C)C(=O)[C@H](CC(N)=O)NC(=O)[C@H](CCC(N)=O)NC1=O |
| 97% | 0.52 nM | 0.97 nM | CC[C@H](C)[C@@H]1NC(=O)[C@H](Cc2ccc(O)cc2)NC(=O)[C@@H](N)CSSC[C@@H](C(=O)N2CCC[C@H]2C(=O)N(C)[C@@H](CC(C)C)C(=O)NCC(N)=O)NC(=O)[C@H](CC(N)=O)NC(=O)[C@H](CCC(N)=O)NC1=O |
| 86% | 0.59 nM | – | CC[C@H](C)[C@@H]1NC(=O)[C@H](Cc2ccc(O)cc2)NC(=O)CCSSC[C@@H](C(=O)N2CCC[C@H]2C(=O)N(C)[C@@H](CC(C)C)C(=O)N(C)CC(N)=O)NC(=O)[C@H](CC(N)=O)NC(=O)[C@H](CCC(N)=O)NC1=O |
| 78% | 6.98 nM | – | CC[C@H](C)[C@@H]1NC(=O)[C@H](Cc2ccc(O)cc2)N(C)C(=O)[C@@H](N)CSSC[C@@H](C(=O)N2CCC[C@H]2C(=O)N[C@@H](CC(C)C)C(=O)NCC(N)=O)N(C)C(=O)[C@H](CC(N)=O)NC(=O)[C@H](CCC(N)=O)NC1=O |
| 98% | 23.9 nM | 6.76 nM | CC[C@H](C)[C@@H]1NC(=O)[C@H](Cc2ccc(O)cc2)N(C)C(=O)[C@@H](N)CSSC[C@@H](C(=O)N2CCC[C@H]2C(=O)N[C@@H](CC(C)C)C(=O)NCC(N)=O)NC(=O)[C@H](CC(N)=O)NC(=O)[C@H](CCC(N)=O)NC1=O |
| 102% | 4.77 nM | 5.47 nM | CC[C@H](C)[C@@H]1NC(=O)[C@H](Cc2ccc(O)cc2)NC(=O)[C@@H](NC)CSSC[C@@H](C(=O)N2CCC[C@H]2C(=O)N[C@@H](CC(C)C)C(=O)NCC(N)=O)NC(=O)[C@H](CC(N)=O)NC(=O)[C@H](CCC(N)=O)NC1=O |
| – | > 1000 nM | – | CC[C@H](C)[C@H]1C(=O)N[C@@H](CCC(N)=O)C(=O)N[C@@H](CC(N)=O)C(=O)N(C)[C@H](C(=O)N2CCC[C@H]2C(=O)N[C@@H](CC(C)C)C(=O)NCC(N)=O)CSSCCC(=O)N[C@@H](Cc2ccc(O)cc2)C(=O)N1C |
| 102% | – | – | CC[C@H](C)[C@@H]1NC(=O)[C@H](Cc2ccc(O)cc2)NC(=O)[C@@H](N)CSSC[C@@H](C(=O)N2CCC[C@H]2C(=O)N[C@@H](CC(C)C)C(=O)NCC(N)=O)NC(=O)[C@H](CC(N)=O)NC(=O)[C@H](CCC(N)=O)NC1=O |
| 106% | – | 0.33 nM | CC[C@H](C)[C@@H]1NC(=O)[C@H](Cc2ccc(O)cc2)NC(=O)CCSSC[C@@H](C(=O)N2CCC[C@H]2C(=O)N[C@@H](CC(C)C)C(=O)NCC(N)=O)NC(=O)[C@H](CC(N)=O)NC(=O)[C@H](CCC(N)=O)NC1=O |
| – | > 1000 nM | > 1010 nM | CC[C@H](C)[C@@H]1NC(=O)[C@H](Cc2ccc(O)cc2)NC(=O)[C@@H](N)CSSC[C@@H](C(=O)N2CCC[C@H]2C(=O)N[C@@H](CC(C)C)C(=O)NCC(N)=O)NC(=O)[C@H](CC(N)=O)NC(=O)[C@H](CCC(N)=O)N(C)C1=O |
| 95% | 0.99 nM | 1.05 nM | CC[C@H](C)[C@@H]1NC(=O)[C@H](Cc2ccc(O)cc2)NC(=O)[C@@H](N)CSSC[C@@H](C(=O)N2CCC[C@H]2C(=O)N[C@@H](CC(C)C)C(=O)NCC(N)=O)N(C)C(=O)[C@H](CC(N)=O)NC(=O)[C@H](CCC(N)=O)NC1=O |
| 90% | 10.8 nM | 34.3 nM | CC[C@H](C)[C@@H]1NC(=O)[C@H](Cc2ccc(O)cc2)NC(=O)[C@@H](N)CSSC[C@@H](C(=O)N2CCC[C@H]2C(=O)N[C@@H](CC(C)C)C(=O)N(C)CC(N)=O)N(C)C(=O)[C@H](CC(N)=O)NC(=O)[C@H](CCC(N)=O)NC1=O |

Reference: ChEMBL document CHEMBL3813659 (Bioorg Med Chem, 2016)
